Measured values taken from paper PMC11851430, “Workflow for E3 Ligase Ligand Validation for PROTAC Development” (ACS Chemical Biology, 2025).

Tests used:
Format in all cases: binding
PIM3A = target: T1, PIM3A (Homo sapiens, UniProt Q86V86); assay: DSF assay; conditions: 20 µM compound
T1 construct: purchased in-house DSF panel (SGC-style construct names; the trailing A/B is a construct suffix)

STK17A = target: T2, STK17A (Homo sapiens, UniProt Q9UEE5); assay: DSF assay; conditions: 20 µM compound
T2 construct: purchased in-house DSF panel (SGC-style construct names; the trailing A/B is a construct suffix)
T2 sequence (Q9UEE5 61-321): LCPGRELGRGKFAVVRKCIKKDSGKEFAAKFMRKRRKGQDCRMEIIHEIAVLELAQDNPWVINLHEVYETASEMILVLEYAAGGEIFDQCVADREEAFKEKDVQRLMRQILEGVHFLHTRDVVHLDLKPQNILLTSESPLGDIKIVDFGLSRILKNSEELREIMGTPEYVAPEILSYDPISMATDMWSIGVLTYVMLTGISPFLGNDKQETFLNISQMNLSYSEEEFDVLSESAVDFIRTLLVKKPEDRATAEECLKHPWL

CHEK2A = target: T3, CHEK2A (Homo sapiens, UniProt O96017); assay: DSF assay; conditions: 20 µM compound
T3 construct: purchased in-house DSF panel (SGC-style construct names; the trailing A/B is a construct suffix)
T3 sequence (O96017 210-531): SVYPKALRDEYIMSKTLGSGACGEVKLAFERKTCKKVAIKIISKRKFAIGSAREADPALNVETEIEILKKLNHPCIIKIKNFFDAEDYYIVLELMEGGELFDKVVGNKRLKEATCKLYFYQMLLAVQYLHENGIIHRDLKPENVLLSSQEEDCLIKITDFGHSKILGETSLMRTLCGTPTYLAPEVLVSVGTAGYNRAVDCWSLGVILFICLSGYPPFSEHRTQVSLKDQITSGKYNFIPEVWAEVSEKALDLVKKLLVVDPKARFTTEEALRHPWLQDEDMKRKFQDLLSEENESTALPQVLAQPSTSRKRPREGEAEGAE

PDK4A = target: T4, PDK4A (Homo sapiens, UniProt Q16654); assay: DSF assay; conditions: 20 µM compound
T4 construct: purchased in-house DSF panel (SGC-style construct names; the trailing A/B is a construct suffix)
T4 sequence (Q16654 whole entry): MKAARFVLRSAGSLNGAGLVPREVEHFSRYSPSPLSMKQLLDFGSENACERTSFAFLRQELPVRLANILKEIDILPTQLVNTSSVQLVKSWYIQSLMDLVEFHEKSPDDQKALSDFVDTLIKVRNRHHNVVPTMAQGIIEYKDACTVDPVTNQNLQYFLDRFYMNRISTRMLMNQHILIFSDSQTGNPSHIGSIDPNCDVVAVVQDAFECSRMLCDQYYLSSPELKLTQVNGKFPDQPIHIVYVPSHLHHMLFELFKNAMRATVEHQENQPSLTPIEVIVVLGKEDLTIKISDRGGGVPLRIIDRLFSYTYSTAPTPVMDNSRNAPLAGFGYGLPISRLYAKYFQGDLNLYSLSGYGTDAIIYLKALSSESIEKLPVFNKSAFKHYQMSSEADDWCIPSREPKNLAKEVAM

CSNK2A2A = target: T5, CSNK2A2A (Homo sapiens, UniProt P19784); assay: DSF assay; conditions: 20 µM compound
T5 construct: purchased in-house DSF panel (SGC-style construct names; the trailing A/B is a construct suffix)
T5 sequence (P19784 whole entry): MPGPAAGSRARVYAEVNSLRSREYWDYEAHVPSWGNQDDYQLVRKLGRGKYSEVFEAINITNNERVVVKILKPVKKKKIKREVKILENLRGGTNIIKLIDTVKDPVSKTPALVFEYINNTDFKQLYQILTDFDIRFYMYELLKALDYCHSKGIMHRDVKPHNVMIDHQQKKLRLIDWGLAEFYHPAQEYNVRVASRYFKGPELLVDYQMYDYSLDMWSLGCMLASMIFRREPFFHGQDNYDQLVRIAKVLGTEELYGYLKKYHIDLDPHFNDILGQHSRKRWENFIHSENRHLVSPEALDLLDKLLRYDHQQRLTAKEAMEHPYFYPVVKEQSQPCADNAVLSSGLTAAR

RPS6K5A = assay: DSF assay; conditions: 20 µM compound
NEK7A = target: T6, NEK7A (Homo sapiens, UniProt Q8TDX7); assay: DSF assay; conditions: 20 µM compound
T6 construct: purchased in-house DSF panel (SGC-style construct names; the trailing A/B is a construct suffix)
T6 sequence (Q8TDX7 34-299): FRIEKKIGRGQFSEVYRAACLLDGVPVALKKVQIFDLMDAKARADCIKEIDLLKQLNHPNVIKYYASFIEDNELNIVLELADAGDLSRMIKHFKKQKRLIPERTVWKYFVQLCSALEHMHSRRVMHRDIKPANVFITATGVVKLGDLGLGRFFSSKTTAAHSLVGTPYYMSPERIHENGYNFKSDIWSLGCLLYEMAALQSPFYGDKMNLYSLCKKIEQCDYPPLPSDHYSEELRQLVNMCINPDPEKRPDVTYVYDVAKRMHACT

TTK1A = target: T7, TTK1A (Homo sapiens, UniProt P33981); assay: DSF assay; conditions: 20 µM compound
T7 construct: purchased in-house DSF panel (SGC-style construct names; the trailing A/B is a construct suffix)
T7 sequence (P33981 519-808): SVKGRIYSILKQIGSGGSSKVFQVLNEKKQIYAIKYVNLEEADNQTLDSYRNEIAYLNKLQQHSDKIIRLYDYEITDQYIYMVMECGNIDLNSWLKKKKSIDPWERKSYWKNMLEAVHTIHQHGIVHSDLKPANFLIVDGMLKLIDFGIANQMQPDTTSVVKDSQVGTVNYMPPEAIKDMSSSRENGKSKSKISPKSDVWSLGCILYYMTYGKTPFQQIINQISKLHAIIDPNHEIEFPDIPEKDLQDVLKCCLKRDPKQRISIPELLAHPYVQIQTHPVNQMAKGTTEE

MELKA = target: T8, MELKA (Homo sapiens, UniProt Q14680); assay: DSF assay; conditions: 20 µM compound
T8 construct: purchased in-house DSF panel (SGC-style construct names; the trailing A/B is a construct suffix)
T8 sequence (Q14680 1-340): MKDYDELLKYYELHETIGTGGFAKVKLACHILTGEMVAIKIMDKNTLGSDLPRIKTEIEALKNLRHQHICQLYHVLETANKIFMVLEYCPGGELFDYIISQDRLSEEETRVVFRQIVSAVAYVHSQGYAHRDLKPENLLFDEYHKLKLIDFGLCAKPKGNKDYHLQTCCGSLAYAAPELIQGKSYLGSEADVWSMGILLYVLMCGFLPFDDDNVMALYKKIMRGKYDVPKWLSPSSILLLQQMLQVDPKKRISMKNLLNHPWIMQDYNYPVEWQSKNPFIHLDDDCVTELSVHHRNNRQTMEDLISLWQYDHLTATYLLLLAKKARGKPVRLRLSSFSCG

CAMK1DA = target: T9, CAMK1DA (Homo sapiens, UniProt Q8IU85); assay: DSF assay; conditions: 20 µM compound
T9 construct: purchased in-house DSF panel (SGC-style construct names; the trailing A/B is a construct suffix)
T9 sequence (Q8IU85 whole entry): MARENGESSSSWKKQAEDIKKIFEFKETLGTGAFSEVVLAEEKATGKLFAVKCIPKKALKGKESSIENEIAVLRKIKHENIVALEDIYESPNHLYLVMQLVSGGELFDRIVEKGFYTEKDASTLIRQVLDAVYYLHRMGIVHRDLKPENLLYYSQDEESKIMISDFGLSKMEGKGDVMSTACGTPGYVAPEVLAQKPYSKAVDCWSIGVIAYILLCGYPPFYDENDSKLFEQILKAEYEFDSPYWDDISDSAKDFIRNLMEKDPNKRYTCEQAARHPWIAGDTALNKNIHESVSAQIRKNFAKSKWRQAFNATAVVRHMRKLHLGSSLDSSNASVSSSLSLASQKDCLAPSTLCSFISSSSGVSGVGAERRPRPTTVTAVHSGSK

AAK1 = target: T10, AAK1 (Homo sapiens, UniProt Q2M2I8); assay: Kinobeads selectivity profiling; conditions: Jurkat lysate, dose series given in nM; for Kd: read-out: Kd (apparent dissociation constant, corrected for protein depletion)
T10 construct: endogenous in cells; host or cells: Jurkat (Clone E6.1) cell lysate
T10 sequence (Q2M2I8 whole entry): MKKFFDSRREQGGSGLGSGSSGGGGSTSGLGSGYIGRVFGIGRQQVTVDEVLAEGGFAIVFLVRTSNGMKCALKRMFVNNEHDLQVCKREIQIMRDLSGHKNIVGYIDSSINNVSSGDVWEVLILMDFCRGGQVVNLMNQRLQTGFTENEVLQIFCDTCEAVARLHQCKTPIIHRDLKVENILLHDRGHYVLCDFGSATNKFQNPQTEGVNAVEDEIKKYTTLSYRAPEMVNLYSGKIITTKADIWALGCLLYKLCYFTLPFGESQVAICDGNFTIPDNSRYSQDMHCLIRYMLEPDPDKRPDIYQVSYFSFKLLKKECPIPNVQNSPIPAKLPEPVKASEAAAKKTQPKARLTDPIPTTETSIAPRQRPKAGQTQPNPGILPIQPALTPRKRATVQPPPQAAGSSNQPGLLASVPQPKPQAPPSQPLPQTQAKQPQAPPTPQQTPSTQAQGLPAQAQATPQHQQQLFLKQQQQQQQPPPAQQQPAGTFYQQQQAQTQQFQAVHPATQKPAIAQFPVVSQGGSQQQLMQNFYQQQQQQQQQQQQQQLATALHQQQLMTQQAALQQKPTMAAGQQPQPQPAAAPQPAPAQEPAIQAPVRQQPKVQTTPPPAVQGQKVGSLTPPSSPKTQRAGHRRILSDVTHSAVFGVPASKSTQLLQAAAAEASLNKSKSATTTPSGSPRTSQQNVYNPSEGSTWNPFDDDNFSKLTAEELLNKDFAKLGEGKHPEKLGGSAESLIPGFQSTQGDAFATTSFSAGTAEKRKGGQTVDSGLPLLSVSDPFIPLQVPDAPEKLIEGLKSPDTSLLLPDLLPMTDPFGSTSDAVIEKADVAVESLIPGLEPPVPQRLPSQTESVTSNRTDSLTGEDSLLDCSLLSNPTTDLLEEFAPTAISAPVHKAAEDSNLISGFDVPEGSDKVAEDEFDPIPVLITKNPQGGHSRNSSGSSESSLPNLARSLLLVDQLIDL
Procedure: Excitation and emission filters […]
curve. […] Measurements were
Kinobeads selectivity profiling of PROTACs
(Multiplexion, Heidelberg, Germany).
The cell lysate was ultracentrifuged and diluted
NaF, 1 mM DTT, protease inhibitors and phosphatase inhibitors to a final concentration of 5 mg/ml as determined by Bradford assay. For selectivity profiling of compounds the cell lysate (2.5 mg of total proteins per pulldown) was pre-incubated with increasing compound […]
µM) for 45 min at 4 °C in an end-over-end shaker. Subsequently, lysates were incubated with Kinobeads epsilon (17 µL settled beads) for 30 min at 4 °C. To assess the degree of protein depletion from the lysates by Kinobeads, the flow-through of the DMSO control was recovered […]
for a pulldown of pulldown experiment where the lysate was incubated a second time with fresh Kinobeads. Beads were washed in 3 steps with buffer containing 0.4%, 0.2% and no NP40.
Bound proteins were reduced with 50 mM DTT in 8 M Urea, 40 mM Tris-HCl pH 7.4 for 30 min at room temperature. After alkylation with 55 mM chloroacetamide (CAA), the Urea concentration was reduced to 1 – 2 M and proteins were digested using trypsin. Acidified peptides were desalted and concentrated using SepPak tC18 µEluation plates (Waters).
Samples were frozen, dried by vacuum centrifugation and stored at -20 °C.
LC-MS2 analysis. Peptides were measured on a Dionex Ultimate3000 nano HPLC coupled online to an Orbitrap Fusion Lumos (Thermo Fisher Scientific) mass spectrometer.
Peptides were dissolved in 0.1% formic acid and delivered to a trap column (ReproSil-pur C18-AQ, 5 μm, Dr. Maisch, 20 mm × 75 μm, self-packed) at a flow rate of 5 μL/min in LC solvent A (0.1 % formic acid).4 After 10 min of loading, peptides were transferred to an analytical column (ReproSil Gold C18-AQ, 3 μm, Dr. Maisch, 400 mm × 75 μm, self-packed) and separated using […]
acetonitrile) in LC solvent A.
The Orbitrap Fusion Lumos was operated as follows: positive polarity; spray voltage 2.1 kV, […]
A full-scan (MS1) was recorded from 360 to 1300 m/z with a resolution of 60,000 in the Orbitrap in profile mode. The MS1 AGC target was set to 4e5 and the maxIT was set to 50 ms, RF lens value was set to 50%. Based on the full scans, precursors were targeted for the MS/MS scans […]
intensity exceeded 2.5e4. The dynamic exclusion was set to 30 sec and exclude isotopes was switched on. The MS2 quadrupole isolation window was set to 1.7 m/z. Peptide fragmentation occurred in the ion routing multipole (IRM) by HCD with a fixed collision energy mode, the […]

RIOK1A = target: T11, RIOK1A (Homo sapiens, UniProt Q9BRS2); assay: DSF assay; conditions: 20 µM compound
T11 construct: purchased in-house DSF panel (SGC-style construct names; the trailing A/B is a construct suffix)
T11 sequence (Q9BRS2 143-494): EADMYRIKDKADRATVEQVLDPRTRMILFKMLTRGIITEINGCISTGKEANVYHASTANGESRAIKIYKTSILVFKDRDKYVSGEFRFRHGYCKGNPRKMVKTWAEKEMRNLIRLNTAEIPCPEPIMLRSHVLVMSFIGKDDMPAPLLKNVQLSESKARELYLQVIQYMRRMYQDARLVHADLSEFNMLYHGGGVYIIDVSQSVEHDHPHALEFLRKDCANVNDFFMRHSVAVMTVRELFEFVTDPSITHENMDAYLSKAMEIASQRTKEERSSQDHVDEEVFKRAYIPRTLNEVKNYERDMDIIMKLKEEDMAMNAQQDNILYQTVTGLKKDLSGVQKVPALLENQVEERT

TAF1A = assay: DSF assay; conditions: 20 µM compound
MAPK10A = target: T12, MAPK10A (Homo sapiens, UniProt P53779); assay: DSF assay; conditions: 20 µM compound
T12 construct: purchased in-house DSF panel (SGC-style construct names; the trailing A/B is a construct suffix)
T12 sequence (P53779 whole entry): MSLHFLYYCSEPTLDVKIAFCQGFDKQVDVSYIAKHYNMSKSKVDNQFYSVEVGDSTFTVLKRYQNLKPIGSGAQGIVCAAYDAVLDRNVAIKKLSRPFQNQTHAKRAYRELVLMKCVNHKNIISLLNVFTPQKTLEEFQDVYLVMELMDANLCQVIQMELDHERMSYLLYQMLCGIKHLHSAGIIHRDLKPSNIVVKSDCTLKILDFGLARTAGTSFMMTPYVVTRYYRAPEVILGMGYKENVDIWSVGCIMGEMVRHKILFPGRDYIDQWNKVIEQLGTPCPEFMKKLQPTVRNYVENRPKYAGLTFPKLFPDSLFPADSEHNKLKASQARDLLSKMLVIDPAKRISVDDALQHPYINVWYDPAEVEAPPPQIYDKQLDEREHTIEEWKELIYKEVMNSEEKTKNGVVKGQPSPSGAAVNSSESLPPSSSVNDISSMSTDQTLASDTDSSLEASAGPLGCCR

ΔTm at 20 µM (PIM3A) [°C]	ΔTm at 20 µM (STK17A) [°C]	ΔTm at 20 µM (CHEK2A) [°C]	ΔTm at 20 µM (PDK4A) [°C]	ΔTm at 20 µM (CSNK2A2A) [°C]	ΔTm at 20 µM (NEK7A) [°C]	ΔTm at 20 µM (TTK1A) [°C]	ΔTm at 20 µM (MELKA) [°C]	ΔTm at 20 µM (CAMK1DA) [°C]	Kd (apparent dissociation constant, corrected for protein depletion) (AAK1)	ΔTm at 20 µM (RIOK1A) [°C]	ΔTm at 20 µM (MAPK10A) [°C]	Kd (AAK1) [nM]	SMILES	ΔTm (RPS6K5A) [°C]	ΔTm (TAF1A) [°C]
-0.28	6.97	4.17	0.03	7.92	0.0755	4.46	9.78	3.94	62.7409	4.9	5.33		CCOC(=O)c1cc(Nc2cc(C3CC3)[nH]n2)nc(Nc2ccc(CC#N)cc2)n1 [compound 5]	14.62	0.35
-4.95	8.17	6.36	1.49	8.28	0.39	4.14	10.1	2.24		-0.05	5.76	6.67	CC(C)(C)OC(=O)NCCOCCOCCOCCOCCC(=O)N1CCN(c2cc(Nc3cc(C4CC4)[nH]n3)nc(Nc3ccc(CC#N)cc3)n2)CC1 [4-L]	9.52	-0.59
0.61	5.46	5.41	0.13	6.77	0.5	4.18	8.44	3.86		5.35	6.08	35.5	CC(C)(C)OC(=O)NCCCOCCOCCOCCCNC(=O)c1cc(Nc2cc(C3CC3)[nH]n2)nc(Nc2ccc(CC#N)cc2)n1 [5-L]	11.21	0.26
